Measured values as given in the supplement of paper PMC5908809.

Tests used:
[1] = test system: normal NK cells expanded with K562-aAPC; experiment: drug sensitivity score (DSS) (DSS units); higher = more sensitive; extreme values may be limits of the assay; conditions: 72 h; IL-2 2.5 ng/mL
Description: (§1)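 Drug sensitivity and resistance testing on K562-aAPC-expanded normal NK cells: 5 concentrations (10-fold steps over a 10,000-fold range), 72 h at 37 °C, viability by CellTiter-Glo normalised to DMSO and benzethonium chloride controls; DSS from the fitted curve.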

[2] = test system: normal NK cells expanded with K562-aAPC; experiment: percent inhibition of viability; higher = more inhibition; conditions: 72 h, IL-2 2.5 ng/mL
Description: as §1

SNK-6 (IL-2 2.5 ng/mL) [3] = experiment: as above; conditions: 72 h
NK-YS (IL-2 2.5 ng/mL) [4] = experiment: as above; conditions: 72 h
NK-92 (IL-2 2.5 ng/mL) [5] = experiment: as above; conditions: 72 h
KHYG-1 (IL-2 2.5 ng/mL) [6] = experiment: as above; conditions: 72 h
[7] = test system: normal primary NK cells, pool 1 (3 donors) (IL-2 2.5 ng/mL); experiment: as above; conditions: 72 h
[8] = test system: normal primary NK cells, pool 3 (3 donors) (IL-2 2.5 ng/mL); experiment: as above; conditions: 72 h
[9] = test system: normal primary NK cells, pool 1 (3 donors), resting (IL-2 0 ng/mL); experiment: as above; conditions: 72 h
KAI3 (IL-2 2.5 ng/mL) [10] = experiment: as above; conditions: 72 h
[11] = test system: normal primary NK cells, pool 2 (3 donors) (IL-2 2.5 ng/mL); experiment: as above; conditions: 72 h
DERL-7 (IL-2 2.5 ng/mL) [12] = experiment: as above; conditions: 72 h
IMC-1 (IL-2 20 ng/mL) [13] = experiment: as above; conditions: 72 h
NKL (IL-2 2.5 ng/mL) [14] = experiment: as above; conditions: 72 h
YT (IL-2 2.5 ng/mL) [15] = experiment: as above; conditions: 72 h
SNK-6 (IL-2 2.5 ng/mL) [16] = experiment: drug sensitivity score (DSS) (DSS units); higher = more sensitive; extreme values may be limits of the assay; conditions: 72 h
NK-YS (IL-2 2.5 ng/mL) [17] = experiment: as above; conditions: 72 h
NK-92 (IL-2 2.5 ng/mL) [18] = experiment: as above; conditions: 72 h
KHYG-1 (IL-2 2.5 ng/mL) [19] = experiment: as above; conditions: 72 h
[20] = test system: normal primary NK cells, pool 1 (3 donors) (IL-2 2.5 ng/mL); experiment: as above; conditions: 72 h
[21] = test system: normal primary NK cells, pool 3 (3 donors) (IL-2 2.5 ng/mL); experiment: as above; conditions: 72 h
[22] = test system: normal primary NK cells, pool 1 (3 donors), resting (IL-2 0 ng/mL); experiment: as above; conditions: 72 h
KAI3 (IL-2 2.5 ng/mL) [23] = experiment: as above; conditions: 72 h
[24] = test system: normal primary NK cells, pool 2 (3 donors) (IL-2 2.5 ng/mL); experiment: as above; conditions: 72 h
DERL-7 (IL-2 2.5 ng/mL) [25] = experiment: as above; conditions: 72 h
IMC-1 (IL-2 20 ng/mL) [26] = experiment: as above; conditions: 72 h
NKL (IL-2 2.5 ng/mL) [27] = experiment: as above; conditions: 72 h
YT (IL-2 2.5 ng/mL) [28] = experiment: as above; conditions: 72 h

CCN(CC)C(=S)SSC(=S)N(CC)CC [Disulfiram] (max concentration tested 100000 nM)
Conditions | drug sensitivity score
DERL-7 (IL-2 2.5 ng/mL) [25] | 32.9
IMC-1 (IL-2 20 ng/mL) [26] | 20
KAI3 (IL-2 2.5 ng/mL) [23] | 8.84
KHYG-1 (IL-2 2.5 ng/mL) [19] | 18.2
NK-92 (IL-2 2.5 ng/mL) [18] | 5.78
NK-YS (IL-2 2.5 ng/mL) [17] | 21.3
NKL (IL-2 2.5 ng/mL) [27] | 31.1
SNK-6 (IL-2 2.5 ng/mL) [16] | 4.39
YT (IL-2 2.5 ng/mL) [28] | 6.46
[1] | 29.9
[20] | 30.3
[21] | 30.4
[22] | 30.6
[24] | 32.3

percent inhibition of viability [%]
Conditions | 10 nM | 100 nM | 1000 nM | 10000 nM | 100000 nM
DERL-7 (IL-2 2.5 ng/mL) [12] | 4.4 | 22.1 | 97.2 | 58.3 | 100
IMC-1 (IL-2 20 ng/mL) [13] | -0.36 | 2.91 | 74.2 | 44.6 | 101
KAI3 (IL-2 2.5 ng/mL) [10] | 0.03 | -5.96 | 23.3 | 29.1 | 99.8
KHYG-1 (IL-2 2.5 ng/mL) [6] | 1.86 | 2.15 | 64.2 | 44.3 | 101
NK-92 (IL-2 2.5 ng/mL) [5] | -0.19 | -7.5 | 39.9 | 1.99 | 98.8
NK-YS (IL-2 2.5 ng/mL) [4] | 1.28 | 2.15 | 66.6 | 59.1 | 94.4
NKL (IL-2 2.5 ng/mL) [14] | 2.6 | 19.2 | 89.2 | 93.1 | 103
SNK-6 (IL-2 2.5 ng/mL) [3] | 0.42 | -19.7 | 11.4 | -24.5 | 100
YT (IL-2 2.5 ng/mL) [15] | 3.15 | 1.21 | 7.05 | 7.11 | 96.6
[2] | -4.71 | 1.75 | 94.6 | 74 | 100
[7] | 3.67 | -0.96 | 99.8 | 99.5 | 101
[8] | -15.5 | 1.36 | 98.2 | 99.1 | 101
[9] | -2.82 | 3.62 | 97.2 | 97.5 | 101
[11] | -8.13 | 11.6 | 98.6 | 98.2 | 101
